Reference: patent publication US20120277161A1, “INHIBITION OF MULTIPLE CELL ACTIVATION PATHWAYS” (INTER-K PTY LIMITED, priority 2009, published 2012)

Legend:
PI3K P110δ = PI3K P110δ (Homo sapiens, UniProt O00329); test: PI3K HTRF activity assay; type: biochemical; conditions: dendrimer conc. 1 μM; read-out: Percentage (%) kinase inhibition PI3K P110δ
Description: (§1) In a final reaction volume of 20 μL, the test PI3K is incubated in assay buffer containing 10 μM phosphatidylinositol-4,5-bisphosphate and MgATP. The reaction is initiated by the addition of the MgATP mix. After incubation for 30 minutes at room temperature, the reaction is stopped by the addition of 5 μL of stop solution containing EDTA and biotinylated phosphatidylinositol-3,4,5-trisphosphate. Finally, 5 μL of detection buffer is added (containing europium-labelled anti-GST monoclonal antibody, GST-tagged GRP1 PH domain and streptavidin-allophycocyanin). The test plate is then read in time-resolved fluorescence mode and the homogenous time-resolved fluorescence (HTRF) signal is determined according to the formula HTRF=10000×(Em665 nm/Em620 nm).

PI3K beta = PI3K beta (Homo sapiens, UniProt P42338); test: PI3K HTRF activity assay; type: biochemical
Description: as §1

PKB beta = PKB beta (Homo sapiens, UniProt P31751); test: PKB kinase activity assay; type: biochemical; conditions: dendrimer conc. 1 μM; read-out: Percentage (%) kinase inhibition PKB beta
Description: (§2) In a final reaction volume of 25 μL, PKB(h) (5-10 mU) is incubated with 8 mM MOPS pH 7.0, 0.2 mM EDTA, 30 μM GRPRTSSFAEGKK (SEQ ID No. 26), 10 mM MgAcetate and [γ-33P-ATP] (specific activity approx. 500 cpm/pmol, concentration as required). The reaction is initiated by the addition of the MgATP mix. After incubation for 40 minutes at room temperature, the reaction is stopped by the addition of 5 μL of a 3% phosphoric acid solution. 10 μL of the reaction mixture is then spotted onto a P30 filtermat and washed three times for 5 minutes in 75 mM phosphoric acid and once in methanol prior to drying and scintillation counting.

PKB gamma = PKB gamma (Homo sapiens, UniProt Q9Y243); test: PKB kinase activity assay; type: biochemical; conditions: dendrimer conc. 1 μM; read-out: Percentage (%) kinase inhibition PKB gamma
Description: as §2

[1] = test system: HT29 human colorectal adenocarcinoma tumour; test: Inhibition of HT29 tumour growth in a mouse model; type: in vivo, Mouse (Mus musculus) BALB/c nu/nu; conditions: for Tumour volume Delta avg: change from day 0; for dT/dC [%]: versus vehicle
Description: HT29 human colorectal adenocarcinoma cells were cultured in RPMI 1640 cell culture medium supplemented with 10% v/v heat inactivated FCS and 50 IU/mL penicillin-streptomycin. The cells were harvested by trypsinisation, washed twice in HBSS and counted. The cells were then resuspended in HBSS to a final concentration of 2×10^7 cells/mL.
Prior to inoculation the skin on the injection site (dorsal right flank) was swabbed with alcohol. The needle was introduced through the skin into the subcutaneous space just below the animal's right shoulder, and 100 μL of cells (2×10^6 cells) were discharged. The treatment of mice began nine days after HT29 cell inoculation, the average tumour volume was 68 mm^3 (average variability of 6.1%).
Body weight and tumour dimensions (length and diameter) were measured for all animals on the first day of treatment (day 0) and then three times per week, including the termination day of the study (Day 24).
Mice were randomized, based on body weight, into two groups of ten mice on Day 0 of the study. The peptide dendrimer Dend 10-10(4) presenting 10 monomer units of the peptide RSKAKNPLYR (SEQ ID No. 6) (see Example 2) was used in this study. The vehicle control (phosphate buffered saline (PBS)) and Dend 10-10(4) dendrimer (20 mg/kg) were each administered by intra-tumoural injection once daily for five consecutive days, beginning on Day 0.
The vehicle control and Dend 10-10(4) dendrimer were administered at a dosing volume of 4.762 mL/kg (100 μL) based on a 21 g mouse. Each animal's body weight was measured immediately prior to dosing. The volume of dosing solution administered to each mouse was calculated and adjusted based on individual body weight.
Tumours were excised from all mice post mortem and weighed. Tumour volume was calculated using the equation:
V (mm^3)=length×diameter^2×π/6
ΔT/ΔC (%) was calculated using the following equation:
ΔT/ΔC %=(ΔvolumeTreatment/ΔVolumeControl)×100
where Δ=change in volume from day 0 to the final measurement day or nominated day of interest.

PI3K beta, sequence (P42338 whole entry, species assumed): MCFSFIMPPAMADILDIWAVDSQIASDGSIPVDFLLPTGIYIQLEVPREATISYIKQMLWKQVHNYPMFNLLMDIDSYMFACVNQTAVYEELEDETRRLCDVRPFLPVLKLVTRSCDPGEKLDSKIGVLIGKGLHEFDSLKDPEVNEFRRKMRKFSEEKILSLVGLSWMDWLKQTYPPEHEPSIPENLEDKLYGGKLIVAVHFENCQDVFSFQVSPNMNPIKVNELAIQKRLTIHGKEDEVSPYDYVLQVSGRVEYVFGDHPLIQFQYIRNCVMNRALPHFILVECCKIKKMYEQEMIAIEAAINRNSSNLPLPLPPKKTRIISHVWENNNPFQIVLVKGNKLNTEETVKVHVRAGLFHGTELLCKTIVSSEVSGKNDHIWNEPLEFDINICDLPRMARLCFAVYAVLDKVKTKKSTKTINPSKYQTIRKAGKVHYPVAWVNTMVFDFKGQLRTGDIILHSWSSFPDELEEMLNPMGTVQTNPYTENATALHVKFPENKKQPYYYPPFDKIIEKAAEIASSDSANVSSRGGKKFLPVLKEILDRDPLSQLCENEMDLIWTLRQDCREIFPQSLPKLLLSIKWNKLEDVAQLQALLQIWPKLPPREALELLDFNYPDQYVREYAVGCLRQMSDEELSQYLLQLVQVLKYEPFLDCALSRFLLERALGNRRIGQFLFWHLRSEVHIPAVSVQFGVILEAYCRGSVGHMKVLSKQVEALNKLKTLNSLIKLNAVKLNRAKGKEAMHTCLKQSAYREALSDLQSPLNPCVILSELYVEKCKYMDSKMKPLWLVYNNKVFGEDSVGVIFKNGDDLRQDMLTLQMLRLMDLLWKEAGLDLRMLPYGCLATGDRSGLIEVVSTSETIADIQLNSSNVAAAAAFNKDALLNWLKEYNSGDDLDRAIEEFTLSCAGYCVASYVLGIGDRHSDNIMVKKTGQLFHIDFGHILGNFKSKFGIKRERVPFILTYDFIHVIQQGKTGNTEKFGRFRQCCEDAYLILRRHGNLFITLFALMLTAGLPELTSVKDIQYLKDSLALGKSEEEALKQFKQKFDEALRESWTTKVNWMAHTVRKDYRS
PI3K beta, sequence (P27986 whole entry partner, species assumed): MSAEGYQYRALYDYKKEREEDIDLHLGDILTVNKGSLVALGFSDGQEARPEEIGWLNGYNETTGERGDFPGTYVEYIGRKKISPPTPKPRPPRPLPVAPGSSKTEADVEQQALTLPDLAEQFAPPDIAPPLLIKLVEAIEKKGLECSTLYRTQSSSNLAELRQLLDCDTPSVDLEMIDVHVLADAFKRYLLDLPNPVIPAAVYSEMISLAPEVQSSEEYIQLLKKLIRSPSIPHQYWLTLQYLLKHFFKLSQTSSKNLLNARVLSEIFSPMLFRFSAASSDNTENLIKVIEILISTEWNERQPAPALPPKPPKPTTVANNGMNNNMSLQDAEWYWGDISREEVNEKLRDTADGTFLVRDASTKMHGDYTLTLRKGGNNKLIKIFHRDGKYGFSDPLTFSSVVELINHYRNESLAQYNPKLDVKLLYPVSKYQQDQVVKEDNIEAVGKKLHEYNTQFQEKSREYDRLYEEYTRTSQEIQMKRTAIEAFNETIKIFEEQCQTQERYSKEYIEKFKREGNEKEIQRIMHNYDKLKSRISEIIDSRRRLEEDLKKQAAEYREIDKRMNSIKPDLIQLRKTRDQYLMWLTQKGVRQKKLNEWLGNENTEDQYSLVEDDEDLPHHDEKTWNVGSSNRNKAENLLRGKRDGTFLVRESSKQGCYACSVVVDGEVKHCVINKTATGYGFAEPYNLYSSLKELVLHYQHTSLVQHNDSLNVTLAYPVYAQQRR
PKB beta, sequence (P31751 whole entry): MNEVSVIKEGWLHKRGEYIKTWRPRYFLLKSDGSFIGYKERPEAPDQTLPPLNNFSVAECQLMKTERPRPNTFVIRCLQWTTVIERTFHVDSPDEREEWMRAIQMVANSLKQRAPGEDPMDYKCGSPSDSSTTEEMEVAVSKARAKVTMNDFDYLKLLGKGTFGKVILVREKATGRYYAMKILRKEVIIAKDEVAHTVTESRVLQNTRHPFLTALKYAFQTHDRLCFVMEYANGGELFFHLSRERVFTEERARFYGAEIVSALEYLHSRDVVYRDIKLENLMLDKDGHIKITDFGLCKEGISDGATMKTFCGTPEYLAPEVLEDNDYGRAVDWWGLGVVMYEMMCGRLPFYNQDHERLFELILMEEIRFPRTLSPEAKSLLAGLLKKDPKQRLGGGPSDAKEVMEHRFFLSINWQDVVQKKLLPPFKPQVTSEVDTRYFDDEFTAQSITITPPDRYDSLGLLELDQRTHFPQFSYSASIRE
PI3K P110δ, sequence (O00329 whole entry, the tested form may be a part): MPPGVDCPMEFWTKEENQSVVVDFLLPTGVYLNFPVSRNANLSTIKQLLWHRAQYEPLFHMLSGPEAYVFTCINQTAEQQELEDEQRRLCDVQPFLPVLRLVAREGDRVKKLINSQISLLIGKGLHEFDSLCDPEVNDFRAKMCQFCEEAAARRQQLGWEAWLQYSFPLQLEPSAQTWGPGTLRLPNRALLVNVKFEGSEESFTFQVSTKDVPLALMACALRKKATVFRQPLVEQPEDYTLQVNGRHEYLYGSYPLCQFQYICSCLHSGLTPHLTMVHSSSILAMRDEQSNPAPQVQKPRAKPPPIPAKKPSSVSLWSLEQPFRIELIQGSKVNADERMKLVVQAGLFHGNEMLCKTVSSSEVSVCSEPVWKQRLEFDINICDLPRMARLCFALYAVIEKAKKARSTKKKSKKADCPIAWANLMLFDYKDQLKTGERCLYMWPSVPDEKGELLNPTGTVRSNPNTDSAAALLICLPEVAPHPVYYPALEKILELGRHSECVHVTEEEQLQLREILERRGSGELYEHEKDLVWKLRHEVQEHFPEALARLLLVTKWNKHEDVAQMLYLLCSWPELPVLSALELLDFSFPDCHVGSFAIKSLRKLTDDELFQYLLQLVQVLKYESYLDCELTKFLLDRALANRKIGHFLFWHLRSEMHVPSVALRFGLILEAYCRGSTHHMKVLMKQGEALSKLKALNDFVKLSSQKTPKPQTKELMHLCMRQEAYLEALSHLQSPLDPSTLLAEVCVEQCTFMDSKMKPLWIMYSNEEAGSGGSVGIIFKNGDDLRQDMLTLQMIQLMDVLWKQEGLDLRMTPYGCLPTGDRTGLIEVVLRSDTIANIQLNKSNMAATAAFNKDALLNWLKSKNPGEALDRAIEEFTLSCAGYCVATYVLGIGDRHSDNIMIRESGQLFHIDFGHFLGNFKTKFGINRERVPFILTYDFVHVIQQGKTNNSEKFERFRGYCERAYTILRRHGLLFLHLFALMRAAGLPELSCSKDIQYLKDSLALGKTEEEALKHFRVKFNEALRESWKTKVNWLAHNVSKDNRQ
PI3K P110δ, sequence (P27986 whole entry partner, the tested form may be a part): as the sequence (P27986 whole entry partner, species assumed) above
PKB gamma, sequence (Q9Y243 whole entry): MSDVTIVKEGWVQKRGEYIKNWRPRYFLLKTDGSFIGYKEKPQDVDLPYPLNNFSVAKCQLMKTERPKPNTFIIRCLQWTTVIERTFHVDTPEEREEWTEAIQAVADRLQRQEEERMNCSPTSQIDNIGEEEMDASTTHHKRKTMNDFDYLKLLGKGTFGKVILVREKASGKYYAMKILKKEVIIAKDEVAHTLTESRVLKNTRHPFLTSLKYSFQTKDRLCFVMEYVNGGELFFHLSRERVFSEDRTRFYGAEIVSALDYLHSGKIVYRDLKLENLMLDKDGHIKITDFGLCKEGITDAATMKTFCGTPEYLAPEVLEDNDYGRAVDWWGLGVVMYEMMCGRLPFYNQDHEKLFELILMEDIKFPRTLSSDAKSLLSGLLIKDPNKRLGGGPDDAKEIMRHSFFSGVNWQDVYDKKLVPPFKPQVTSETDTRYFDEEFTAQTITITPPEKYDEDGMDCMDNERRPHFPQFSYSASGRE

In the case of CC(C)C[C@H](NC(=O)[C@@H]1CCCN1C(=O)[C@H](CC(N)=O)NC(=O)[C@H](CCCCN)NC(=O)[C@H](C)NC(=O)[C@H](CCCCN)NC(=O)[C@H](CO)NC(=O)[C@@H](N)CCCNC(=N)N)C(=O)N[C@@H](Cc1ccc(O)cc1)C(=O)N[C@@H](CCCNC(=N)N)C(=O)NCCCC[C@H](NC(=O)[C@H](CCCCNC(=O)[C@H](CCCCNC(=O)[C@H](CCCNC(=N)N)NC(=O)[C@H](Cc1ccc(O)cc1)NC(=O)[C@H](CC(C)C)NC(=O)[C@@H]1CCCN1C(=O)[C@H](CC(N)=O)NC(=O)[C@H](CCCCN)NC(=O)[C@H](C)NC(=O)[C@H](CCCCN)NC(=O)[C@H](CO)NC(=O)[C@@H](N)CCCNC(=N)N)NC(=O)[C@H](CCCNC(=N)N)NC(=O)[C@H](Cc1ccc(O)cc1)NC(=O)[C@H](CC(C)C)NC(=O)[C@@H]1CCCN1C(=O)[C@H](CC(N)=O)NC(=O)[C@H](CCCCN)NC(=O)[C@H](C)NC(=O)[C@H](CCCCN)NC(=O)[C@H](CO)NC(=O)[C@@H](N)CCCNC(=N)N)NC(=O)[C@H](CCCCNC(=O)[C@H](CCCNC(=N)N)NC(=O)[C@H](Cc1ccc(O)cc1)NC(=O)[C@H](CC(C)C)NC(=O)[C@@H]1CCCN1C(=O)[C@H](CC(N)=O)NC(=O)[C@H](CCCCN)NC(=O)[C@H](C)NC(=O)[C@H](CCCCN)NC(=O)[C@H](CO)NC(=O)[C@@H](N)CCCNC(=N)N)NC(=O)[C@H](CCCNC(=N)N)NC(=O)[C@H](Cc1ccc(O)cc1)NC(=O)[C@H](CC(C)C)NC(=O)[C@@H]1CCCN1C(=O)[C@H](CC(N)=O)NC(=O)[C@H](CCCCN)NC(=O)[C@H](C)NC(=O)[C@H](CCCCN)NC(=O)[C@H](CO)NC(=O)[C@@H](N)CCCNC(=N)N)C(=O)NCCCC[C@H](NC(=O)[C@H](CCCCNC(=O)[C@H](CCCNC(=N)N)NC(=O)[C@H](Cc1ccc(O)cc1)NC(=O)[C@H](CC(C)C)NC(=O)[C@@H]1CCCN1C(=O)[C@H](CC(N)=O)NC(=O)[C@H](CCCCN)NC(=O)[C@H](C)NC(=O)[C@H](CCCCN)NC(=O)[C@H](CO)NC(=O)[C@@H](N)CCCNC(=N)N)NC(=O)[C@H](CCCCNC(=O)[C@H](CCCCNC(=O)[C@H](CCCNC(=N)N)NC(=O)[C@H](Cc1ccc(O)cc1)NC(=O)[C@H](CC(C)C)NC(=O)[C@@H]1CCCN1C(=O)[C@H](CC(N)=O)NC(=O)[C@H](CCCCN)NC(=O)[C@H](C)NC(=O)[C@H](CCCCN)NC(=O)[C@H](CO)NC(=O)[C@@H](N)CCCNC(=N)N)NC(=O)[C@H](CCCNC(=N)N)NC(=O)[C@H](Cc1ccc(O)cc1)NC(=O)[C@H](CC(C)C)NC(=O)[C@@H]1CCCN1C(=O)[C@H](CC(N)=O)NC(=O)[C@H](CCCCN)NC(=O)[C@H](C)NC(=O)[C@H](CCCCN)NC(=O)[C@H](CO)NC(=O)[C@@H](N)CCCNC(=N)N)NC(=O)[C@H](CCCCNC(=O)[C@H](CCCNC(=N)N)NC(=O)[C@H](Cc1ccc(O)cc1)NC(=O)[C@H](CC(C)C)NC(=O)[C@@H]1CCCN1C(=O)[C@H](CC(N)=O)NC(=O)[C@H](CCCCN)NC(=O)[C@H](C)NC(=O)[C@H](CCCCN)NC(=O)[C@H](CO)NC(=O)[C@@H](N)CCCNC(=N)N)NC(=O)[C@H](CCCNC(=N)N)NC(=O)[C@H](Cc1ccc(O)cc1)NC(=O)[C@H](CC(C)C)NC(=O)[C@@H]1CCCN1C(=O)[C@H](CC(N)=O)NC(=O)[C@H](CCCCN)NC(=O)[C@H](C)NC(=O)[C@H](CCCCN)NC(=O)[C@H](CO)NC(=O)[C@@H](N)CCCNC(=N)N)C(=O)NCCC(N)=O [Dend 10-10(4)], the inhibition at 1 µM (PI3K P110δ) is reported as 56%, the inhibition at 1 µM (PI3K beta; dendrimer conc. 1 μM, read-out: Percentage (%) kinase inhibition PI3K P110β) is reported as 61% and the “PIK3 beta % activity relative to control” value (PI3K beta; final concentration 50 μM) is reported as 83%. The inhibition at 1 µM (PKB beta) was 70%, the inhibition at 1 µM (PKB gamma) was 99% and the “Tumour volume Average” value ([1]; 20 mg/kg intra-tumoural once daily for five days, Day 0) was 68.0 mm^3. For the same molecule, the “Tumour volume Average” value ([1]; 20 mg/kg intra-tumoural once daily for five days, Day 2) was 136.6 mm^3, the “Tumour volume Average” value ([1]; 20 mg/kg intra-tumoural once daily for five days, Day 4) was 211.9 mm^3 and the “Tumour volume Average” value ([1]; 20 mg/kg intra-tumoural once daily for five days, Day 7) was 248.6 mm^3. The “Tumour volume Average” value ([1]; 20 mg/kg intra-tumoural once daily for five days, Day 11) was 300.9 mm^3, the “Tumour volume Average” value ([1]; 20 mg/kg intra-tumoural once daily for five days, Day 14) was 323.9 mm^3 and the “Tumour volume Average” value ([1]; 20 mg/kg intra-tumoural once daily for five days, Day 16) was 391.0 mm^3. For the same molecule, the “Tumour volume Average” value ([1]; 20 mg/kg intra-tumoural once daily for five days, Day 18) was 476.9 mm^3, the “Tumour volume Average” value ([1]; 20 mg/kg intra-tumoural once daily for five days, Day 21) was 601.5 mm^3 and the “Tumour volume Average” value ([1]; 20 mg/kg intra-tumoural once daily for five days, Day 24) was 702.1 mm^3. The “average tumour weight at the end of the study” value ([1]; 20 mg/kg intra-tumoural once daily for five days, Day 24, control 0.962 g) was 0.437 g, the “tumour growth compared to the vehicle only control” value ([1]; FIG. 16) was “markedly inhibited” and the “Tumour volume Delta avg” value ([1]; Day 0) was 0.0 mm^3. The “Tumour volume Delta avg” value ([1]; Day 2) was 68.6 mm^3, the “Tumour volume Delta avg” value ([1]; Day 4) was 144.0 mm^3 and the “Tumour volume Delta avg” value ([1]; Day 7) was 180.6 mm^3. The “Tumour volume Delta avg” value ([1]; Day 11) was 232.9 mm^3, the “Tumour volume Delta avg” value ([1]; Day 14) was 255.9 mm^3 and the “Tumour volume Delta avg” value ([1]; Day 16) was 323.1 mm^3. The “Tumour volume Delta avg” value ([1]; Day 18) was 408.9 mm^3, the “Tumour volume Delta avg” value ([1]; Day 21) was 598.7 mm^3 and the “Tumour volume Delta avg” value ([1]; Day 24) was 710.4 mm^3. The “dT/dC [%]” value ([1]; Day 0) was 100.0%, the “dT/dC [%]” value ([1]; Day 2) was 134.3% and the “dT/dC [%]” value ([1]; Day 4) was 102.0%. The “dT/dC [%]” value ([1]; Day 7) was 68.1%, the “dT/dC [%]” value ([1]; Day 11) was 58.0% and the “dT/dC [%]” value ([1]; Day 14) was 44.6%. The “dT/dC [%]” value ([1]; Day 16) was 45.2%, the “dT/dC [%]” value ([1]; Day 18) was 47.1% and the “dT/dC [%]” value ([1]; Day 21) was 55.7%. The “dT/dC [%]” value ([1]; Day 24) was 54.5%.
